Assay results from patent publication US20240300899A1, “A QUINOLONE COMPOUND IN SOLID FORMS AND PROCESSES FOR THE PREPARATION THEREOF” (ZYDUS LIFESCIENCES LIMITED, priority 2021, published 2024).

What was measured:
Type in all cases: physicochemical
[1] = Hygroscopicity test as per EP general texts 5.11; details: 24-hour exposure over saturated ammonium chloride solution, 25±1° C., 80±2% relative humidity
Description: Hygroscopicity Data: The test for hygroscopicity was performed as per EP general texts 5.11 page no 565. The test was performed by calculating the difference in weights, after 24-hour upon expose over a saturated solution of ammonium chloride at 25±1° C. and 80±2% relative humidity.

[2] = Powder properties (bulk density, tapped density, angle of repose)
[3] = Stability data on storage (HPLC purity, polymorphic form, impurity content)
Description: The crystalline form of compound of Formula (I) is characterized by X-ray powder diffraction (XRPD) pattern. In particular, the solid form of compound of Formula (I) is characterized by X-ray powder diffraction pattern obtained using CuKα1 radiation on a PANalytical X'Pert Pro or equivalent X-ray powder diffraction instrument. Particularly, the X-ray powder diffraction spectrum was measured under the following experimental conditions: The HPLC purity of the compound of Formula (I) was calculated using following method: Instrument Name: Waters Alliance e2695 HPLC system or equivalent [table] [table] [table]

[4] = 25° C. ± 2° C. and 60% ± 5% Relative Humidity, 1 month
[5] = 25° C. ± 2° C. and 60% ± 5% Relative Humidity, 15 days
[6] = 25° C. ± 2° C. and 60% ± 5% Relative Humidity, Initial
[7] = 30° C. ± 2° C. and 65% ± 5% Relative Humidity, 1 month
[8] = 30° C. ± 2° C. and 65% ± 5% Relative Humidity, 15 days
[9] = 30° C. ± 2° C. and 65% ± 5% Relative Humidity, Initial
[10] = 40° C. ± 2° C. and 75% ± 5 % Relative Humidity, 1 month
[11] = 40° C. ± 2° C. and 75% ± 5 % Relative Humidity, 15 days
[12] = 40° C. ± 2° C. and 75% ± 5 % Relative Humidity, Initial

## O=C(O)CNC(=O)c1c(O)c2ccccc2n(OCC2CC2)c1=O [Example-1, (1-(cyclopropylmethoxy)-4-hydroxy-2-oxo-1,2-dihydroquinoline-3-carbonyl) glycine]
[1]
  Hygroscopicity result: Non-hygroscopic
  Increase in mass (hygroscopicity): less than 0.2%
[2]
  Angle of Repose: 30.6 °
  Bulk Density: 0.61 g/mL
  Tapped Density: 0.73 g/mL
[3]; [4]
  Content of Compound of Formula D: 0.04%
  HPLC Purity: 99.91%
  Polymorphic form: Unchanged
[3]; [5]
  Content of Compound of Formula D: 0.05%
  HPLC Purity: 99.87%
  Polymorphic form: Unchanged
[3]; [6]
  Content of Compound of Formula D: 0.04%
  HPLC Purity: 99.9%
[3]; [7]
  Content of Compound of Formula D: 0.04%
  HPLC Purity: 99.91%
  Polymorphic form: Unchanged
[3]; [8]
  Content of Compound of Formula D: 0.05%
  HPLC Purity: 99.83%
  Polymorphic form: Unchanged
[3]; [9]
  Content of Compound of Formula D: 0.04%
  HPLC Purity: 99.9%
[3]; [10]
  Content of Compound of Formula D: 0.04%
  HPLC Purity: 99.92%
  Polymorphic form: Unchanged
[3]; [11]
  Content of Compound of Formula D: 0.05%
  HPLC Purity: 99.85%
  Polymorphic form: Unchanged
[3]; [12]
  Content of Compound of Formula D: 0.04%
  HPLC Purity: 99.9%
